The values that follow come from PubChem BioAssay AID316 (DTP/NCI, 2004).

Where “and” joins values, the source holds several entries; their conditions need not be identical. Equal values may be shown once. Inconclusive results and toxic doses are left out.

The test system of this experiment is P1534 leukemia ip, CD2F1 mice, survival T/C. Nature of the experiment: NCI In Vivo Anticancer Drug Screen. Data for tumor model P1534 Leukemia (intraperitoneal) in CD2F1 (CDF1) mice. The note with it: endpoint: mean survival time, higher = longer survival. The protocol: The antitumor activity of compounds was measured in mice bearing transplantable tumors. Survival or tumor size were measured and the results are expressed as the measurement made in the treated group (T) divided by the measurement made in the vehicle treated control group (C). The tumor model used in this assay is P1534 Leukemia (intraperitoneal) in CD2F1 (CDF1) mice

The mark [1] stands for this setting: dose: 25.0 mg/kg/injection, schedule: Q01DX010 (ip), vehicle: saline.
The mark [2] stands for this setting: dose: 50.0 mg/kg/injection, schedule: Q01DX010 (ip), vehicle: saline.
Setting [3] is: dose: 100.0 mg/kg/injection, schedule: Q01DX010 (ip), vehicle: saline.
The mark [4] stands for this setting: dose: 200.0 mg/kg/injection, schedule: Q01DX010 (ip), vehicle: saline.
The mark [5] stands for this setting: dose: 3.13 mg/kg/injection, schedule: Q01DX010 (ip), vehicle: saline.
Setting [6] is: dose: 6.25 mg/kg/injection, schedule: Q01DX010 (ip), vehicle: saline.
The mark [7] stands for this setting: dose: 12.5 mg/kg/injection, schedule: Q01DX010 (ip), vehicle: saline.
[8] abbreviates: dose: 7.5 mg/kg/injection, schedule: Q01DX010 (ip), vehicle: saline.
The mark [9] stands for this setting: dose: 15.0 mg/kg/injection, schedule: Q01DX010 (ip), vehicle: saline.
[10] abbreviates: dose: 30.0 mg/kg/injection, schedule: Q01DX010 (ip), vehicle: saline.
The mark [11] stands for this setting: dose: 60.0 mg/kg/injection, schedule: Q01DX010 (ip), vehicle: saline.
Setting [12] is: dose: 12.5 mg/kg/injection, schedule: Q01DX010 (sc), vehicle: steriod suspending solution.

Regarding `NC(=O)c1ccc(N)nc1`, the T/C runs as follows: (dose: 0.25 mg/kg/injection, schedule: Q#A X020 (ip), vehicle: saline) 119 % of control; (dose: 0.38 mg/kg/injection, schedule: Q01DX010 (ip), vehicle: saline) 120 % of control and 94 % of control; (dose: 0.75 mg/kg/injection, schedule: Q01DX010 (ip), vehicle: saline) 153 % of control; (dose: 1.5 mg/kg/injection, schedule: Q01DX006 (iv), vehicle: saline) 114 % of control; (dose: 1.5 mg/kg/injection, schedule: Q01DX010 (im), vehicle: saline) 121 % of control; (dose: 1.5 mg/kg/injection, schedule: Q01DX010 (oral), vehicle: saline) 100 % of control. For the same compound, the T/C was 121 % of control (dose: 1.5 mg/kg/injection, schedule: Q01DX010 (sc), vehicle: saline); 119 % of control (dose: 1.5 mg/kg/injection, schedule: Q03DX Z (ip), vehicle: saline); 100 % of control (dose: 2.0 mg/kg/injection, schedule: Q#A X020 (ip), vehicle: saline); 114 % of control (dose: 3.0 mg/kg/injection, schedule: Q01DX006 (iv), vehicle: saline); 121 % of control (dose: 3.0 mg/kg/injection, schedule: Q01DX010 (im), vehicle: saline); 158 % of control (dose: 3.0 mg/kg/injection, schedule: Q01DX010 (ip), vehicle: saline). The T/C is, setting by setting: (dose: 3.0 mg/kg/injection, schedule: Q01DX010 (oral), vehicle: saline) 123 % of control; (dose: 3.5 mg/kg/injection, schedule: Q01DX001 (ip), vehicle: saline) 115 % of control; (dose: 3.5 mg/kg/injection, schedule: Q07DX Z (ip), vehicle: saline) 115 % of control; (dose: 6.0 mg/kg/injection, schedule: Q01DX010 (im), vehicle: saline) 121 % of control; (dose: 6.0 mg/kg/injection, schedule: Q01DX010 (ip), vehicle: saline) 88 % of control; (dose: 7.0 mg/kg/injection, schedule: Q01DX001 (ip), vehicle: saline) 115 % of control. Further, the T/C is 119 % of control (dose: 12.0 mg/kg/injection, schedule: Q03DX Z (ip), vehicle: saline); 117 % of control and 119 % of control (dose: 14.0 mg/kg/injection, schedule: Q01DX001 (ip), vehicle: saline); 117 % of control and 119 % of control (dose: 14.0 mg/kg/injection, schedule: Q07DX Z (ip), vehicle: saline); 88 % of control (dose: 28.0 mg/kg/injection, schedule: Q01DX001 (ip), vehicle: saline); 121 % of control (dose: 112.0 mg/kg/injection, schedule: Q01DX001 (ip), vehicle: saline).

Turning to `O=c1[nH]cnc2ccccc12`, the T/C is 107 % of control under setting [1], 100 % of control under setting [2], 103 % of control under setting [3] and 114 % of control under setting [4].

For the compound `CCCNc1ncnc2[nH]ncc12`, the T/C was 100 % of control under setting [5]; 88 % of control and 100 % of control under setting [6]; 111 % of control and 100 % of control under setting [7]; 94 % of control and 100 % of control under setting [1].

Turning to `C/C=C1/CN[C@H]2Cc3c([nH]c4ccccc34)[C@@H](O)C[C@@H]1C2C(=O)OC` (stereo not given in full), the T/C is 93 % of control under setting [8], 93 % of control under setting [9], 96 % of control under setting [10] and 93 % of control under setting [11].

Regarding `O=C1C(=O)N(CN(CCO)CCO)c2ccccc21`, the T/C runs as follows: under setting [2], 96 % of control; under setting [3], 100 % of control; under setting [4], 100 % of control; (dose: 400.0 mg/kg/injection, schedule: Q01DX010 (ip), vehicle: saline) 100 % of control.

`CCC12CCCN3CCc4c(n(c5ccccc45)C(O)(C(=O)OC)C1)C32` (stereo not given): the T/C is, setting by setting: (dose: 1.88 mg/kg/injection, schedule: Q01DX010 (ip), vehicle: saline) 90 % of control; (dose: 3.75 mg/kg/injection, schedule: Q01DX010 (ip), vehicle: saline) 93 % of control; under setting [8], 96 % of control.

`Cc1ccccn1`: the T/C (dose: 62.5 mg/kg/injection, schedule: Q01DX010 (ip), vehicle: saline) was 96 % of control; the T/C (dose: 125.0 mg/kg/injection, schedule: Q01DX010 (ip), vehicle: saline) was 100 % of control; the T/C (dose: 250.0 mg/kg/injection, schedule: Q01DX010 (ip), vehicle: saline) was 96 % of control.

For `CCn1cnc2c(=S)nc[nH]c21`, the T/C (dose: 31.3 mg/kg/injection, schedule: Q01DX010 (ip), vehicle: saline) was 114 % of control.

Consider `C[C@]12C=CC(=O)C=C1CC[C@@H]1[C@@H]2C(=O)C[C@@]2(C)[C@H]1CC[C@]2(O)C(=O)CO`, for which the T/C is, setting by setting: (dose: 3.13 mg/kg/injection, schedule: Q01DX010 (sc), vehicle: steriod suspending solution) 99 % of control; (dose: 6.25 mg/kg/injection, schedule: Q01DX010 (sc), vehicle: steriod suspending solution) 95 % of control; (dose: 10.0 mg/kg/injection, schedule: Q01DX005 (sc), vehicle: steriod suspending solution) 105 % of control and 109 % of control and 100 % of control; under setting [12], 88 % of control; (dose: 50.0 mg/kg/injection, schedule: Q01DX005 (sc), vehicle: steriod suspending solution) 107 % of control and 108 % of control and 110 % of control; (dose: 100.0 mg/kg/injection, schedule: Q01DX005 (sc), vehicle: steriod suspending solution) 108 % of control and 99 % of control and 100 % of control. In addition, the T/C reads like this: (dose: 200.0 mg/kg/injection, schedule: Q01DX005 (sc), vehicle: steriod suspending solution) 86 % of control and 102 % of control; (dose: 250.0 mg/kg/injection, schedule: Q01DX005 (sc), vehicle: steriod suspending solution) 90 % of control and 93 % of control.

On to `COc1cc2c(cc1Oc1c(Oc3c(O)c(OC)cc4c3C(CC(C)C)N(C)CC4)c(OC)cc3c1C(CC(C)C)N(C)CC3)C(CC(C)C)N(C)CC2` (stereo not given), for which the T/C is, setting by setting: under setting [1], 107 % of control; under setting [2], 115 % of control; under setting [3], 111 % of control.

`NCCCCCCNCCCCCCN`: the T/C reads like this: (dose: 1.56 mg/kg/injection, schedule: Q01DX010 (ip), vehicle: saline) 100 % of control; under setting [5], 100 % of control; under setting [6], 100 % of control; under setting [7], 92 % of control and 100 % of control.

For the compound `CC[C@]12C=CCN3CC[C@@]4(c5ccc(OC)cc5N(C)[C@H]4[C@@](O)(C(=O)OC)[C@@H]1OC(C)=O)[C@@H]32`, the T/C reads like this: under setting [8], 93 % of control; under setting [9], 93 % of control; under setting [10], 96 % of control; under setting [11], 86 % of control.

For `CCCNc1ncnc2c1cnn2C`, the T/C is, setting by setting: under setting [5], 100 % of control; under setting [6], 103 % of control and 100 % of control; under setting [7], 103 % of control and 107 % of control; under setting [1], 107 % of control and 100 % of control.

With `COc1cc2c3c(c4ccc(O)cc4c2cc1OC)[C@@H](O)[C@@H]1CCCN1C3`, the T/C reads like this: (dose: 2.5 mg/kg/injection, schedule: Q01DX009 (ip), vehicle: water) 98 % of control; (dose: 5.0 mg/kg/injection, schedule: Q01DX009 (ip), vehicle: water) 113 % of control; (dose: 15.0 mg/kg/injection, schedule: Q01DX009 (ip), vehicle: water) 110 % of control; (dose: 20.0 mg/kg/injection, schedule: Q01DX009 (ip), vehicle: water) 163 % of control; (dose: 20.0 mg/kg/injection, schedule: Q01DX010 (ip), vehicle: water) 113 % of control; (dose: 30.0 mg/kg/injection, schedule: Q01DX010 (ip), vehicle: water) 86 % of control.

With `CC(=O)O[C@]1(C(C)=O)CC[C@H]2[C@@H]3C[C@H](C)C4=CC(=O)C=C[C@]4(C)[C@@]3(F)[C@@H](O)C[C@@]21C`, the T/C by setting is: under setting [12], 103 % of control; (dose: 25.0 mg/kg/injection, schedule: Q01DX010 (sc), vehicle: steriod suspending solution) 92 % of control.

For `COc1ccc2[nH]c3c(C)c4ccncc4c(C)c3c2c1`, the T/C (dose: 10.0 mg/kg/injection, schedule: Q01DX010 (ip), vehicle: saline) is 105 % of control and 102 % of control; the T/C (dose: 20.0 mg/kg/injection, schedule: Q01DX010 (ip), vehicle: saline) was 110 % of control and 117 % of control; the T/C (dose: 40.0 mg/kg/injection, schedule: Q01DX010 (ip), vehicle: saline) was 115 % of control and 123 % of control; the T/C (dose: 80.0 mg/kg/injection, schedule: Q01DX010 (ip), vehicle: saline) was 122 % of control.

As for `Clc1ncnc2nc[nH]c12`, the T/C runs as follows: under setting [8], 106 % of control and 100 % of control; under setting [9], 94 % of control; under setting [10], 105 % of control; under setting [11], 105 % of control.
